Data: PubChem BioAssay (NCI)
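Five concentrations, 48 hours, 96-well plates. The concentration for 50% growth inhibition is given as GI50. TGI: concentration producing complete growth inhibition.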

What was measured:
Test in all cases: growth of human tumour cells (NCI), 48 h
K-562 leukemia = system: K-562 leukemia
SW-620 colon = system: SW-620 colon
MDA-N = system: MDA-N
UO-31 renal = system: UO-31 renal
NCI/ADR-RES ovarian = system: NCI/ADR-RES ovarian
SF-295 CNS = system: SF-295 CNS
COLO 205 colon = system: COLO 205 colon
NCI-H23 lung = system: NCI-H23 lung
ACHN renal = system: ACHN renal
SK-MEL-5 melanoma = system: SK-MEL-5 melanoma
A549 NSCLC = system: A549 NSCLC
SK-MEL-28 melanoma = system: SK-MEL-28 melanoma

Compound | TGI (K-562 leukemia) [µM] | TGI (SW-620 colon) [µM] | TGI (MDA-N) [µM] | TGI (UO-31 renal) [µM] | TGI (NCI/ADR-RES ovarian) [µM] | TGI (SF-295 CNS) [µM] | TGI (COLO 205 colon) [µM] | TGI (NCI-H23 lung) [µM] | TGI (ACHN renal) [µM] | TGI (SK-MEL-5 melanoma) [µM] | TGI (A549 NSCLC) [µM] | TGI (SK-MEL-28 melanoma) [µM] | GI50 (SK-MEL-5 melanoma) [µM]
CC1OC(O[C@H]2CC[C@]3(C)[C@H]4CC=C5[C@@H]6[C@@H](C)[C@H](C)CC[C@]6(C(=O)O)CC[C@@]5(C(=O)O)[C@]4(C)CC[C@H]3C2(C)C)C(O)C(O)C1O (some centres not stated) | > 75 | > 75 | > 75 | > 75 | > 75 | > 75 | > 75 | > 75 | > 75 | > 75 | – | – | –
CCOC(=O)CCC(NC(=O)c1ccc(Nc2nc3cc(C(F)(F)F)ccc3nc2-c2ccccc2)cc1)C(=O)OCC (configuration not stated) | > 100 | > 100 | – | > 100 | > 100 | > 100 | > 100 | > 100 | > 100 | > 100 | > 100 | > 100 | –
Cc1cc2c(s1)C(=O)c1sccc1C2=O | – | 0.719 | 0.308 | 2.29 | 1.64 | 1.15 | 3.36 | 0.36 | 2.23 | 0.301 | 2.03 | 0.377 | –
COc1ccc2c3ccc4c(c3n(C)c2c1)C(=O)c1ccccc1C4=O | > 100 | > 100 | – | > 100 | – | > 100 | > 100 | > 100 | > 100 | > 100 | > 100 | > 100 | –
O=C1CCCC2=C1CC1=C(CCCC1=O)N2c1cccc2ccccc12 | > 100 | > 100 | – | > 100 | > 100 | – | – | > 100 | > 100 | > 100 | > 100 | > 100 | –
Cc1cc2oc(=O)[nH]c(=S)c2c(C)c1C | > 100 | > 100 | – | > 100 | – | > 100 | > 100 | > 100 | > 100 | – | > 100 | > 100 | –
[N-]=[N+]=NC1C(Br)C(=O)NC(=O)N1[C@H]1C[C@H](O)[C@@H](CO)O1 (some centres not stated) | > 100 | > 100 | – | > 100 | – | > 100 | > 100 | > 100 | > 100 | > 100 | > 100 | > 100 | 42.2
COC12C=CC(CC1)C1C(=O)c3c(C)c(C)n(C)c3C(=O)C12 (configuration not stated) | > 100 | > 100 | – | > 100 | > 100 | > 100 | > 100 | > 100 | > 100 | > 100 | – | – | –
C=C[C@H]1CN2CCc3c([nH]c4c([C@H]5CCCN5C)c(O)ccc34)[C@@H]2C[C@@H]1C[C@H]1c2[nH]c3ccccc3c2CCN1C | – | 2.93 | 2.64 | 3.24 | 3.38 | 3.25 | 2.83 | 3.56 | 3.33 | – | 3.08 | 3.3 | –
C=C1C(=O)C23CC1C[C@H](OC(C)=O)C2C1(C)C(OC(C)=O)C[C@H](O)C(C)(C)[C@H]1C(O)[C@@H]3OC(C)=O (some centres not stated) | 10.9 | 6.14 | – | 31.2 | > 100 | > 57.6 | 14.5 | 26.8 | 24.3 | 27.9 | 48.8 | 24.4 | –
C[Si](C)(C)OC1c2[nH]c3ccccc3c2CN2C(=O)CCC12 (configuration not stated) | > 100 | > 100 | > 100 | > 100 | > 100 | – | > 100 | – | > 100 | > 100 | > 100 | > 100 | –
O=C1CCC2SC1CCC2=O | > 100 | > 100 | – | > 100 | > 100 | > 100 | > 100 | > 100 | > 100 | > 100 | > 100 | > 100 | –
CC(c1cccc2ccccc12)/[N+]([O-])=C/c1ccccc1 (configuration not stated) | > 100 | > 100 | – | > 100 | – | > 100 | > 100 | > 100 | > 100 | > 100 | > 100 | > 100 | –
COc1cc2[nH]c(-c3cccc(N(C)C)c3)cc(=O)c2cc1OC | > 100 | > 100 | – | > 100 | – | > 21.4 | 19.1 | > 100 | > 100 | > 100 | > 100 | > 100 | –
CCOC(=O)c1c(NC(=O)Nc2ccccc2)c(C(N)=O)c2n1CCCCC2 | > 100 | > 100 | – | > 100 | > 100 | > 100 | > 100 | > 100 | > 100 | > 100 | – | > 100 | –
O=C(c1ccncc1)n1nc(-c2ccccc2)c(N=Nc2ccc([N+](=O)[O-])cc2)c1-c1ccccc1 | > 100 | > 100 | – | 86.2 | – | > 100 | > 100 | > 100 | – | > 100 | > 100 | > 100 | –
CCC(=O)COc1ccc(NC(NC(=O)C(C(F)(F)F)C(F)(F)F)(C(F)(F)F)C(F)(F)F)cc1 | – | > 100 | 83.9 | > 100 | 42.7 | > 100 | 43.7 | > 100 | > 100 | > 100 | > 100 | > 100 | –
COc1ccc(CN(CCc2c[nH]c3ccccc23)Cc2ccc(OC)cc2)cc1 | > 100 | > 22 | – | 6.8 | 9.79 | 5.78 | – | 10.5 | 17.8 | 9.74 | > 31.7 | > 80.4 | –
CCC1(N=[N+]=[N-])C(=O)Nc2cc(C)ccc2C1=O (configuration not stated) | > 100 | > 100 | – | > 100 | – | > 100 | > 100 | > 100 | 51.2 | > 100 | > 100 | > 100 | –
CCOC(=O)c1nc2ccc(C(F)(F)F)cc2nc1Oc1ccc(F)cc1 | > 100 | > 100 | – | > 100 | > 100 | > 100 | > 100 | > 100 | > 100 | > 100 | – | > 100 | –

Compound | TGI (K-562 leukemia) [µM] | TGI (SW-620 colon) [µM] | TGI (MDA-N) [µM] | TGI (UO-31 renal) [µM] | TGI (NCI/ADR-RES ovarian) [µM] | TGI (SF-295 CNS) [µM] | TGI (COLO 205 colon) [µM] | TGI (NCI-H23 lung) [µM] | TGI (ACHN renal) [µM] | TGI (SK-MEL-5 melanoma) [µM] | TGI (A549 NSCLC) [µM] | TGI (SK-MEL-28 melanoma) [µM] | GI50 (SK-MEL-5 melanoma) [µM]
COC[n+]1cc2cc(OC)c(OC)cc2c2ccc3cc(OC)c(OC)cc3c21 | > 100 | > 100 | – | > 100 | – | > 100 | > 100 | > 100 | > 100 | > 100 | > 100 | > 100 | –
CC(=O)Nc1ccc2c(C)c3c4ccccc4n(C)c3nc2n1 | – | 46.6 | 34.5 | 32.3 | > 100 | 53.4 | 30.9 | 53.4 | 33.1 | 21.9 | 59.8 | – | –
Cc1cc(Cl)ccc1N=NC(=O)NNc1ccc(Cl)cc1C | 63 | 30.2 | 30.3 | 29.6 | – | – | – | 29.8 | 40.3 | 26.9 | 30.6 | 30.7 | –
O=C(CCCn1ccnc1[N+](=O)[O-])NCCn1ccnc1 | > 100 | > 100 | – | > 100 | > 100 | > 100 | > 100 | > 100 | > 100 | > 100 | > 100 | > 100 | –
S=C(Nc1cccc(Cl)c1)Nc1ccccn1 | > 100 | > 100 | – | > 100 | > 100 | > 100 | > 100 | – | – | > 100 | > 100 | > 100 | –
O=c1cc(-c2cccc(OC(F)(F)F)c2)[nH]c2cc3c(cc12)OCO3 | – | > 100 | – | – | 0.236 | – | > 32.2 | > 100 | > 100 | 0.336 | > 100 | > 100 | –
Cc1c2c(n(CCc3ccccc3)c1C)NN=C(C#N)S2(=O)=O | > 100 | > 100 | > 100 | > 100 | > 100 | – | > 100 | > 100 | > 100 | > 100 | > 100 | > 100 | –
O=C1N=C(c2ccccc2)O/C1=C\c1ccccc1 | – | > 100 | > 100 | > 100 | > 100 | > 100 | > 100 | > 100 | > 100 | > 100 | > 100 | > 100 | –
CC1(O)/C(=N/O)CC2CC1C2(C)C (configuration not stated) | > 100 | > 100 | > 100 | > 100 | – | > 100 | > 100 | > 100 | > 100 | > 100 | > 100 | > 100 | –
CCN(CC)Cc1cc(Nc2c3ccccc3nc3c2[nH]c2ccccc23)ccc1O | > 100 | 3.43 | – | 3.56 | – | 2.83 | 2.19 | 2.8 | 3.53 | 3.51 | 2.93 | 3.47 | –
COC(=O)c1c(C(=O)OC)c2cc(C(=O)c3ccccc3)ccn2c1Cl | > 100 | > 100 | – | 89.8 | – | 85.2 | > 100 | 88.1 | > 100 | 33.2 | > 100 | > 100 | –
COc1ccc(C2C(Cl)C(=O)N2NC(=O)Cc2ccccc2)cc1 (configuration not stated) | > 100 | > 100 | – | > 100 | – | > 100 | > 100 | > 100 | > 100 | > 100 | > 100 | > 100 | –
CC(=O)Nc1ccc(C2[C@H]3C(=O)N(c4ccc(Cc5ccc(N6C(=O)[C@@H]7ON(c8ccccc8)C(c8ccc(NC(C)=O)cc8)[C@@H]7C6=O)cc5)cc4)C(=O)[C@H]3ON2c2ccccc2)cc1 (some centres not stated) | > 100 | > 100 | – | > 100 | – | > 100 | > 100 | > 100 | > 100 | > 100 | > 100 | > 100 | –
CC(C)(C)[C@H]1CO[C@]2(C)[C@@H]3C[C@@H]3C(=O)N12 | > 100 | > 100 | – | > 100 | – | > 100 | > 100 | > 100 | > 100 | > 100 | > 100 | > 100 | –
CC1=NN(C(=O)Cc2ccccc2)C(=O)/C1=C\C=C\c1ccccc1 | > 100 | > 100 | – | > 100 | – | > 100 | > 100 | > 100 | > 100 | > 100 | > 100 | > 100 | –
CCOP(=O)(OCC)/C(C#N)=C/c1ccco1 | > 100 | > 100 | – | > 100 | – | > 100 | > 100 | > 100 | > 100 | > 100 | > 100 | > 100 | –
N=C1C(=N)c2ccccc2-c2ccccc21 | – | – | 0.325 | 2.96 | 5 | 2.98 | 3.24 | 1.92 | 2.72 | 1.53 | 3.66 | 3.35 | –
Cc1cc(C)nc(Nc2nc3ccc([N+](=O)[O-])cc3[nH]2)n1 | > 100 | > 100 | – | > 100 | – | > 100 | > 100 | > 100 | > 100 | > 100 | > 100 | > 100 | –
NC1CC(=O)c2cc(Br)sc21 (configuration not stated) | > 100 | > 100 | > 100 | > 100 | > 100 | – | > 100 | – | > 100 | > 100 | > 100 | > 100 | –
CC(C)CCC[C@@H](C)C1CCC2[C@@H]3CCC4CC(CCC=C(c5cc(Cl)c(OC(=O)c6ccccc6)c(C(=O)O)c5)c5cc(Cl)c(OC(=O)c6ccccc6)c(C(=O)O)c5)CC[C@]4(C)C3CC[C@@]21C (some centres not stated) | > 100 | > 100 | > 100 | > 100 | > 100 | – | > 100 | > 100 | > 100 | 78.8 | > 100 | – | –
